Reference: EP2060564A1, “Non-peptidic promoters of apoptosis” (Ludwig-Maximilians-Universität München, priority 2007, dated 2009)
Where “and” joins values, the source holds several entries; their conditions need not be identical. Identical values can stand only once.

Tests used:
[1] = system: Human leukemia Jurkat T cells; assay: Quantification of apoptosis (Nicoletti, PI staining, flow cytometry) in Jurkat cells; assay type: cell-based; details: mean value and standard deviation (C.I.95), n = 3
Protocol: Cell Culture. Human leukemia Jurkat T cells (clone J16), Jurkat T-cells stably transfected with either empty vector (Jurkat vector, pBabe Jurkat) or XIAP (Jurkat-XIAP) as well as the BIR-3 domain only (BIR-3-sp-RING-Jurkat) (kindly provided by Dr. Colin Duckett at the University of Michigan) were cultured (37°C and 5% CO2 in RPMI 1640 containing 2 mM L-glutamine (PAN Biotech, Aidenbach, Germany) supplemented with 10% FCS gold (PAA Laboratories, Cölbe, Germany) and 1% Pyruvat (Sigma Deisenhofen, Germany).
(§1) Detection an Quantification of Apoptosis. Quantification of apoptosis was performed according to Nicoletti et al. (J Immunol. Methods (1991) 139, 271-279). Briefly, cells were incubated for 24 h in a hypotonic buffer (0.1% sodium citrate, 0.1% Triton-X-100 and 50 µg/ml PI) and analyzed by flow cytometry on a FACSCalibur (Becton Dickinson, Heidelberg, Germany). Nuclei to the left of the G1-peak containing hypodiploid DNA were considered apoptotic.
Compounds were first tested for their apoptotic potential in Jurkat cells alone as well as in combination with sub-optimal concentrations of etoposide. […] Similar results were obtained for compound II-1 (55.8% apoptotic cells). Table 1: Percentage of apoptotic Jurkat cells measured after application of medium control, 0.75 µM etoposide, 25 µM test substance, and a mixture of 0.75 µM etoposide and 25 µM test substance, respectively.a

XIAP = molecular target: T1, XIAP (Homo sapiens, UniProt P98170); assay: Western Blot analysis of XIAP protein level; assay type: cell-based; details: 25µM compound alone as well as in combination with 500nM etoposide; 16 and 24 h (Figure 5)
T1 construct: endogenous in cells
T1 sequence (P98170 whole entry): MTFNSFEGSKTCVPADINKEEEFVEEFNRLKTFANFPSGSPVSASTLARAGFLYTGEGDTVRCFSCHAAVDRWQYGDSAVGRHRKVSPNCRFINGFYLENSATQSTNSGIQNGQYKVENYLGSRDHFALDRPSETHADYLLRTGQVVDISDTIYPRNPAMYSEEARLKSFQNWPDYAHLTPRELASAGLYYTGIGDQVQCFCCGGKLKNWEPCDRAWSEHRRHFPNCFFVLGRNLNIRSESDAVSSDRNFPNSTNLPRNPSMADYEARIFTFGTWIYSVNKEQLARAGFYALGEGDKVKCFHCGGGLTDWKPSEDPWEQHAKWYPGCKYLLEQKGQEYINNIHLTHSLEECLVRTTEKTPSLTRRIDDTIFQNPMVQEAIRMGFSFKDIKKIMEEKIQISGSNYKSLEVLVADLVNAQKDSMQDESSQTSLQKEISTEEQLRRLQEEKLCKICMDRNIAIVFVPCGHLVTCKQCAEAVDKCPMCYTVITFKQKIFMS
Protocol: Figure 5: XIAP protein level is reduced by compound I-1. Cells were left untreated (CO) or treated with 25µM of compound I-1, 500nM etoposide or with combination of both for the indicated time periods. XIAP protein level was detected by Western Blot analysis. Ponceau S was used as loading control. A representative experiment out of three independent experiments is shown.
(§2) Western Blot Analysis. Cells were collected by centrifugation, washed with ice-cold PBS and lysed in 1% Triton X-100, 0.15 M NaCl and 30 mM Tris-HCl pH 7.5 with the protease inhibitor complete™ (Roche, Mannheim, Germany) for 30 min. Lysates were centrifuge at 10,000xg for 10 min at 4°C. Equal amounts of protein were separated by SDS-PAGE (12% for XIAP) transferred to polyvinylidene difluoride membranes (Immobilon-P™, Millipore, Eschborn, Germany). Equal protein loading was controlled by coomassie staining of gels. Membranes were blocked with 5% fat-free milk powder in PBS containing 0.05% Tween-20 (1 h) and incubated with specific antibodies against XIAP (mouse antibody IgG1, clone 28, BD Transduction Laboratories, Heidelberg, Germany) overnight at 4°C. Specific proteins were visualized by secondary antibodies conjugated to horseradish peroxidase and the ECL Plus™ Western Blotting detection reagent (Amersham Biosciences, Freiburg, Germany). […]

caspase-3 = assay: Caspase-3 activity assay (Ac-DEVD-AFC substrate); assay type: cell-based, Human; details: 25µM compound with 500nM etoposide, wild type Jurkat cells (Figure 3)
Protocol: (§3) Figure 2: Compound I-1 sensitizes to a reduction of etoposide-induced clonogenic survival. Wild type Jurkat cells were left untreated (A) or treated for 1h with 25µM of compound I-1 (B), 500nM etoposide (C) or a combination of both (D). After replacement into fresh methylcellulose medium, cells were incubated for 7 days. Afterwards colony number was counted (E). Bars, the mean ± SE of three independent experiments. *** P<0.001 (Anova/Bonferroni). Figure 3: Compound I-1 increases initiator caspase activities. Wild type Jurkat cells were left untreated or treated with 25µM of compound I-1, 500nM etoposide or a combination of both for the indicated time periods. Fluorescence measurements were performed for caspase-9 (A) and caspase-3 (B). Protein concentration was used for normalization. Bars, the mean ± SE of three independent experiments performed in triplicate. *** P<0.001 (Anova/Bonferroni).
(§4) Caspase-9/3 activity assay. Caspase-9/3 activity was measured using caspase-9(Ac-LEHD-AFC) or caspase 3(Ac-DEVD-AFC) substrates (both from Bachem AG, Bubendorf, Germany). […] The reading was performed in a plate-reading multifunction photometer (SPECTRAFLUOR PLUS, Tecan, Crailsheim, Germany). The activity was calculated from the difference between fluorescence in the 0 point and after 1h (for caspase-3) or after 3h (for caspase-9). […]

[2] = system: Jurkat cells overexpressing full-length XIAP or BIR-3/Ring; assay: Quantification of apoptosis in Jurkat cell lines overexpressing XIAP or BIR-3/Ring; assay type: cell-based, Human; details: wild type Jurkat cells and Jurkat cells overexpressing full-length XIAP or BIR-3/Ring; with low dose of etoposide (Figure 1)
Protocol: Figure 1: Compound I-1 sensitizes different Jurkat cell lines towards etoposide-induced apoptosis. Compound I-1 was tested in wildtype human leukemia Jurkat T cells (A), as well as in Jurkat cells stably transfected with empty vector (B), full-length XIAP overexpressing Jurkat cells (C) or the […] domain overexpressing Jurkat cells (D). Cell death was evaluated as described under "Materials and Methods". Bars, the mean ± SE of three independent experiments performed in triplicate. *** P<0.001 (Anova/Bonferroni), n.s., not significant.
Cell Culture. […]
as §1, with “Nuclei to the left of the G1-peak containing hypodiploid DNA were considered apoptotic.” left out

caspase-9 = assay: Caspase-9 activity assay (Ac-LEHD-AFC substrate); assay type: cell-based, Human; details: 25µM compound with 500nM etoposide, wild type Jurkat cells (Figure 3)
Protocol: as §3, §4

Wildtype Jurkat cells = assay: Clonogenic assay; assay type: cell-based, Human; details: 1h with 25µM compound and 500nM etoposide; colonies scored after 7 days (Figure 2)
Protocol: as §3
Clonogenic assay. Wildtype Jurkat cells were left untreated or treated for 1h with 25µM test compound, 500nM etoposide or a combination of both. Subsequently, cells were washed with PBS and resuspended in culture medium (5x10^5 cells/ml). Cell suspensions were diluted 1:10 with methylcellulose (0.52%) medium containing 40% FCS. Cells were seeded in 96-well plates (100 µl) and colonies were scored after 7 days of culture.

[3] = system: caspase-9, caspase-3 and PARP; assay: Western Blot analysis of caspase-9, caspase-3 and PARP cleavage; assay type: cell-based, Human; details: 25µM compound with 500nM etoposide, wild type Jurkat cells, time dependent (Figure 4)
Protocol: Figure 4: Compound I-1 activates initiator caspases and induces PARP cleavage. Wild type Jurkat cells were left untreated or treated with 25µM of compound I-1, 500nM etoposide or a combination of both for the indicated time periods. Expression of caspase-9, caspase-3 and PARP was assessed by Western Blot analysis. Cleavage products are indicated by arrows. Ponceau S was used as loading control. A representative experiment out of three independent experiments is shown.
as §2, with “4°C.” for “4°C. Specific proteins were visualized by secondary antibodies conjugated to horseradish peroxidase and the ECL Plus™ Western Blotting detection reagent (Amersham Biosciences, Freiburg, Germany).”

[4] = Etoposide 0.75µM and Substance 25µM

Row | SMILES | Percentage of apoptotic Jurkat cells ([1]; Etoposide 0.75µM alone) | XIAP protein level (XIAP) | caspase-3 activity induced by etoposide (caspase-3) | apoptosis induced by subtoxic concentrations of etoposide [2] | caspase-9 activity induced by etoposide (caspase-9) | Percentage of apoptotic Jurkat cells [1, 4] | Percentage of apoptotic Jurkat cells ([1]; Substance 25µM alone) [%] | clonogenic survival of etoposide treated Jurkat cells (Wildtype Jurkat cells) | cleavage of caspase-9 and -3 proforms as well as PARP induced by etoposide [3]
1 | COc1cc([C@@H]2c3cc4c(cc3[C@@H](O[C@@H]3O[C@@H]5CO[C@@H](C)O[C@H]5[C@H](O)[C@H]3O)[C@H]3COC(=O)[C@H]23)OCO4)cc(OC)c1O [Etoposide, reference compound] | 30.66±9.89% and 31.31±2.74% | – | – | – | – | – | – | – | –
2 | CCc1cccc(CC)c1NC(=O)CN1CCC(NC(=O)c2cccc(F)c2)CC1 [Compound I-1] | – | able to reduce XIAP protein after 16 and 24 h | significantly increased | potentiates apoptosis induced by subtoxic concentrations of etoposide | significantly increased | 65.7% and 65.74±6.0% | 13.16±2.28 | sensitizes for reduction of clonogenic survival of etoposide treated Jurkat cells | strong impact of compound I-1 on cleavage of caspase-9 and -3 proforms as well as PARP
3 | NNC(=O)CNC(c1ccccc1)c1cc(Br)ccc1NC(=O)c1ccccc1Br (centres unmarked) [II-1] | – | – | – | – | – | 55.8% and 55.82±12.23% | 10.69±1.25 | – | –
